Assay results reported in patent US11186873B2, “Combination method for treating cancer by targeting immunoglobulin superfamily member 1 (IGSF1) and mesenchymal-epithelial transition factor (MET)” (WELLMARKER BIO CO., LTD., priority 2014, dated 2021).

Key:
[1] = system: human gastric cancer cell lines SNU638 and MKN45; test: Invasion chamber assay after siRNA, gastric cancer cells; format: cell-based; settings: siRNA method
Protocol: (§1) HGF-independent human gastric cancer cell lines MKN45 and SNU638 and lung cancer cell line HCC827 were transfected with IGSF1 siRNA or MET siRNA for 48 hours. Plate inserts (BD Biosciences) of […] pore size were placed in a 24-well plate, and each 100 μl of matrigel (BD Biosciences) was seeded on each at a concentration of 200 μg/ml and incubated in a CO2 incubator for 30 minutes. 2.5×10^4 cells transfected with MET or IGSF1 siRNA were placed in the insert plate in a total volume of 100 μl in serum-free media. 400 μl of growth media (RPMI1640+10% FBS) were seeded on the bottom plate and cultured in a CO2 incubator for 24 hours. After 24 hours, the insert plate was washed with PBS, and the remaining cells were wiped with a cotton swab and fixed in 10% formalin for 20 minutes. After washing with purified water, the cells were stained with 0.01% crystal violet solution for 20 minutes and washed with warm water, and then the number of migrated cells was counted. […] The number of cells migrated through the insert plate in the control and the gastric cancer and lung cancer cell lines transfected with MET or IGSF1 siRNA was counted and verified.
(§2) The present inventors inhibited the expression of IGSF1 by the siRNA method in human gastric cancer cell lines SNU638 and MKN45 and then analyzed the degree of the inhibition of invasion and migration by invasion chamber assay and wound healing assay.

[2] = system: human gastric cancer cell lines SNU638 and MKN45; test: Wound healing / migration assay after siRNA, gastric cancer cells; format: cell-based; settings: siRNA method
Protocol: as §1, §2

[3] = system: human lung cancer cell lines HCC827 and HCC194; test: Cell growth (cell counting) after shRNA, lung cancer cells; format: cell-based; settings: number of cells at 24 hours and 48 hours, shRNA method
Text: The present inventors inhibited the expression of IGSF1 or the expression of MET by the shRNA method in human lung cancer cell lines HCC827 and HCC194 and then determined the inhibition of cell growth.

[4] = system: phosphorylation of MET; test: Western blot of MET phosphorylation after inhibiting IGSF1 by siRNA/shRNA; format: cell-based, human; settings: AGS, MKN45, SNU638 and HCC827, concentration-dependent manner, FIG. 2E
Protocol: (§3) To perform Western blot analysis, proteins isolated from the respective cells were separated by SDS-PAGE and transferred to membranes (PolyScreen membranes; New England Nuclear, Boston, Mass., USA). The proteins were incubated with various antibodies (anti-phospho MET, E-cadherin (Cell signaling Technology, Beverly, Mass., USA), anti-MET, anti-r-tubulin (Santa Cruz Biotechnology, Santa Cruz, Calif., USA), anti-IGSF1 (Abnova, Jhouzih, Taipei, Taiwan)) at 4° C. for 12 hours and then washed with 1× TBS-T buffer three times for 10 minutes. The proteins were incubated with appropriate anti-rabbit-HRP or anti-mouse-HRP secondary antibody at room temperature for 2 hours and washed with 1× TBS-T buffer three times for 10 minutes, and then the expression of the proteins was detected using ECL solution (GE Healthcare Bio-Sciences Corp.). […]
(§4) To analyze the changes in MET phosphorylation by inhibition of the expression of IGSF1 as a marker for the induction of HGF-independent MET phosphorylation in human gastric cancer cell line (AGS, MKN45, SNU638) and lung cancer cell line (HCC827), the present inventors inhibited the expression of IGSF1 or MET by the siRNA method and then determined the changes in phosphorylation of the MET protein by western blot analysis.

[5] = system: human gastric cancer cell lines SNU638 and MKN45; test: Cell growth (cell counting) after shRNA, gastric cancer cells; format: cell-based; settings: number of cells counted for 3 days, shRNA method
Text: The present inventors inhibited the expression of IGSF1 or MET by the shRNA method in human gastric cancer cell lines SNU638 and MKN45 and then determined the inhibition of cell growth.

[6] = system: MET; test: Real-time PCR of MET expression after shRNA inhibition of IGSF1; format: cell-based, human; settings: RNA level, SNU638 and MKN45, inhibition of IGSF1 by shRNA method
Text: (§5) The present inventors inhibited the expression of IGSF1 or MET by the shRNA method in human gastric cancer cell lines SNU638 and MKN45 and then determined the changes in expression of each gene by real-time PCR.

[7] = system: human gastric cancer cell lines SNU638 and MKN45; test: Colony forming assay after inhibition of IGSF1 or MET; format: cell-based
Protocol: Moreover, the expression of IGSF1 or MET in human gastric cancer cell lines SNU638 and MKN45 was inhibited, and then the degree of the inhibition of cell growth was determined by colony forming assay.

[8] = system: IGSF1; test: Real-time PCR of IGSF1 expression after shRNA inhibition of MET; format: cell-based, human; settings: RNA level, SNU638 and MKN45, inhibition of MET by shRNA method
Text: as §5

[9] = system: IGSF1; test: Western blot of IGSF1 expression after MET shRNA; format: cell-based, human; settings: MET shRNA concentration-dependent manner, FIG. 2E
Protocol: as §3, §4

[10] = system: gastric cancer cell lines SNU638 and MKN45; test: Apoptosis by MET inhibitor, trypan blue exclusion, gastric cancer cells; format: cell-based, human
[11] = system: cleaved caspase 3; test: Expression of cleaved caspase 3 after MET inhibitor treatment; format: cell-based, human; settings: treatment at each concentration; SNU638 and MKN45
[12] = system: IGSF1; test: IGSF1 expression after miR-34a/miR-34c or antagomir transfection, gastric cancer cells; format: cell-based, human
Text: (§6) Moreover, as shown in the lower panel of FIG. 6B, as a result of analyzing the expression of MET and IGSF1 after transfecting miR-34a or miR-34c into human gastric cancer cell lines MKN45 and SNU638, it was observed that the expression of IGSF1 as a marker for the induction of HGF-independent MET phosphorylation and the expression of c-MET were inhibited by miR-34a or miR-34c.

[13] = system: relevant signaling pathway; test: Expression of the relevant signaling pathway after miRNA transfection; format: cell-based; settings: human gastric cancer cell line; lower panel of FIG. 6C
[14] = system: MMP9; test: MMP9 expression after miRNA transfection; format: cell-based, human; settings: SNU638; lower panel of FIG. 6D
Text: Furthermore, as shown in the lower panel of FIG. 6D, the transfection of gastric cancer cell line SNU638 with mir-34a or mir-34c inhibited the migration of cells and decreased the expression of MMP9.

[15] = system: gastric cancer cell lines SNU638 and MKN45; test: Cell migration after miRNA or antagomir transfection, gastric cancer cells; format: cell-based, human; settings: for migration of cells: SNU638, lower panel of FIG. 6D; for cell migration: SNU638 and MKN45, upper panel of FIG. 6D
[16] = system: gastric cancer cell line; test: Cell invasion after miRNA or antagomir transfection, gastric cancer cells; format: cell-based, human; settings: middle panel of FIG. 6D
Protocol: […] Plate inserts (BD Biosciences) of […] pore size were placed in a 24-well plate, and each 100 μl of matrigel (BD Biosciences) was seeded on each at a concentration of 200 μg/ml and incubated in a CO2 incubator for 30 minutes. […] 400 μl of growth media (RPMI1640+10% FBS) were seeded on the bottom plate and cultured in a CO2 incubator for 24 hours. After 24 hours, the insert plate was washed with PBS, and the remaining cells were wiped with a cotton swab and fixed in 10% formalin for 20 minutes. After washing with purified water, the cells were stained with 0.01% crystal violet solution for 20 minutes and washed with warm water, and then the number of migrated cells was counted. In the case of the migration assay, the same procedure as above was carried out without coating the insert plate. The number of cells migrated through the insert plate in the control and the gastric cancer and lung cancer cell lines transfected with MET or IGSF1 siRNA was counted and verified.

[17] = system: human gastric cancer cell line SNU638; test: Cell growth after miRNA transfection, trypan blue exclusion; format: cell-based; settings: 300 nM, compared with the control group
Protocol: Human miRNA-34a (SEQ ID NO: 1; […]) or miRNA-34c (SEQ ID NO: 2; […]) was purchased from Thermo Fisher Scientific. 4×10^5 HGF-independent human gastric cancer SNU638 cells were seeded and transfected with 300 nM of miRNA-34a or miRNA-34c, and then the number of cells was counted using trypan blue exclusion method for 0, 1, 2 and 3 days.
4×10^5 HGF-independent human gastric cancer SNU638 cells or 3×10^5 MKN45 cells were transfected with 300 nM of miRNA-34a (SEQ ID NO: 1) or miRNA-34c (SEQ ID NO: 2), and then the number of cells was counted using trypan blue exclusion method for 0, 1, 2 and 3 days.

[18] = system: MET; test: Luciferase 3'UTR reporter assay in human 293 cell line, MET; format: cell-based; settings: wild-type vs mutated 3'UTR luciferase plasmids
[19] = system: MET; test: MET expression after miR-34a/miR-34c or antagomir transfection, gastric cancer cells; format: cell-based, human; settings: for expression of c-MET: MKN45 and SNU638, lower panel of FIG. 6B; for expression of MET: cell line SNU638, real-time PCR, upper panel of FIG. 6B
Text: as §6

[20] = system: IGSF1; test: Luciferase 3'UTR reporter assay in human 293 cell line, IGSF1; format: cell-based; settings: wild-type vs mutated 3'UTR luciferase plasmids
[21] = system: IGSF1; test: IGSF1 expression after miRNA transfection, lung cancer cells; format: cell-based, human; settings: lung cancer cell lines HCC827 and H1944
[22] = system: pMET; test: pMET expression after miRNA/antagomir transfection, lung cancer cells; format: cell-based, human; settings: lung cancer cell lines HCC827 and H1944
[23] = MKN45 and SNU638, lower panel of FIG. 6B
[24] = cell line SNU638, real-time PCR, upper panel of FIG. 6B

MET siRNA: siRNA against MET, SEQ ID NO: 5, 5′-AAAGATAAACCTCTCATAATG-3′ (AAAGAUAAACCUCUCAUAAUG; listed as RNA, chemistry not given here)
invasion [1]: inhibited | migration [2]: inhibited

IGSF1 shRNA: shRNA against IGSF1, SEQ ID NO: 6, 5′-CAAAGAUGGAAGUGAAAUA UCUCUAUUUCACUUCCAUCUUUGUU-3′ (CAAAGAUGGAAGUGAAAUAUCUCUAUUUCACUUCCAUCUUUGUU; siRNA; shRNA hairpin, further chemistry not given here)
cell growth [3]: inhibited | phosphorylation of MET [4]: decreased | cell growth [5]: inhibited | expression of MET [6]: decreased | number of colonies [7]: decreased

MET shRNA: shRNA against MET, SEQ ID NO: 7, 5′-GCCAGCCUGAAUGAUGACAUCUCUGUCAUCAUUCAGGCUGGCUU-3′ (siRNA; shRNA hairpin, further chemistry not given here)
cell growth [3]: inhibited | cell growth [5]: inhibited | number of colonies [7]: decreased | expression of IGSF1 [8]: decreased | expression of IGSF1 [9]: decreased

Cc1[nH]c(/C=C2\C(=O)Nc3ccc(S(=O)(=O)Cc4c(Cl)cccc4Cl)cc32)c(C)c1C(=O)N1CCC[C@@H]1CN1CCCC1 [PHA665752]
induction of apoptosis ([10]; trypan blue exclusion, treatment at each concentration): induction of apoptosis | response to the MET inhibitor ([10]; with inhibition of the expression of IGSF1): increased | expression of cleaved caspase 3 [11]: increased

miR-34c: Human miRNA-34c, SEQ ID NO: 2, AGGCAGUGUAGUUAGCUGAUUGC, purchased from Thermo Fisher Scientific (listed as RNA, chemistry not given here)
expression of IGSF1 [12, 23]: inhibited | expression of IGSF1 [12, 24]: decreased | expression of the relevant signaling pathway [13]: decreased | expression of MMP9 [14]: decreased | migration of cells [15]: inhibited | cell migration [15]: inhibited | inhibition of the invasion of cells [16]: about 50% | growth of cancer cells [17]: significantly inhibited | luciferase activity of MET [18]: inhibited only in the wild type | expression of c-MET [19]: inhibited | expression of MET [19]: decreased | luciferase activity of IGSF1 [20]: inhibited only in the wild type | expression of IGSF1 [21]: decreased | expression of pMET [22]: decreased

miR-34a: Human miRNA-34a, SEQ ID NO: 1, UGGCAGUGUCUUAGCUGGUUGU, purchased from Thermo Fisher Scientific (listed as RNA, chemistry not given here)
expression of IGSF1 [12, 23]: inhibited | expression of IGSF1 [12, 24]: decreased | expression of the relevant signaling pathway [13]: decreased | expression of MMP9 [14]: decreased | migration of cells [15]: inhibited | cell migration [15]: inhibited | inhibition of the invasion of cells [16]: about 50% | growth of cancer cells [17]: significantly inhibited | luciferase activity of MET [18]: inhibited only in the wild type | expression of c-MET [19]: inhibited | expression of MET [19]: decreased | luciferase activity of IGSF1 [20]: inhibited only in the wild type | expression of IGSF1 [21]: decreased | expression of pMET [22]: decreased
